According to patent US20260256755A1, “COMBINATIONS FOR TREATMENT OF PARKINSON'S DISEASE AND OTHER PRIMARY AND SECONDARY PARKINSONIAN DISORDERS” (Kenai Therapeutics, Inc., priority 2023, published 2026):

How the values were obtained:
microglia = conditions: cited from earlier work
cerebral cortex = assay: Example 5: cortical lesion study, neuroprotection and inflammation; type: in vivo, long evans hooded rats; conditions: injected with DA neural cells
Description: Animals, Surgery, and histology: lesion studies will be conducted on 15 long evans hooded rats weighing 225-275 g. Twelve of these rats will be deeply anesthetized 10 with ketamine/xylazine and placed in a sterotaxic holder. A 4×2 mm (rostrocaudal×mediolateral) skull opening will be made on the right side starting just behind the coronal suture and centered at a mediolateral position of +2.5 mm relative to bregma. A dissecting knife will be penetrated through the dura and cortex in the center of this skull opening to a depth of 1 mm. The skull defect will be filled with bone wax, the skin sutured closed, and the animal placed on a heating pad. Twenty minutes later, 0.4 cc of solution containing 100 μg of 20 peptide (^~0.4 mg/kg, 6 rats) or DMEM vehicle (6 rats) will be injected under the skin of the shoulder near the midline. The rats will be perfused 4 days later and their brains processed for histology and immunohistochemistry as in previous studies. Three rats will be sacrificed without surgery or treatment. […] The density of ED-1+ ameboid microglia in the perilesion parencyma wound will be calculated after experimentally blinded counting of 4 fields (dorsal and ventral margins of the wound) in 2 sections through the lesion.

DA neural cells = assay: Example 2: stress test, medium change followed by serum deprivation; type: cell-based; conditions: concentrations of 0.1 and 0.01 μM
Description: DA neural cell survival will be measured by either counting surviving attached DA neural cells or by colorimetric determination after applying an electrocoupling reagent that responds to chemical reactions in normal cellular respiration.

PGC-1a = assay: upregulation of PGC-1a, mode of action relevant to dopaminergic cells; type: cell-based; conditions: for ability to upregulate PGC-1a: target relevant to dopaminergic cells and Parkinson's disease

## FC(F)(F)c1ccc(CNc2ccc(Cc3c[nH]c4ncc(Cl)cc34)cn2)cn1 [Pexidartinib]
microglia; healthy brain
  depletion of the microglia population: fast depletion of the microglia population
microglia; in vivo
  survival of microglia: inhibit the survival of microglia
Cerebral cortex
  accumulation of inflammatory cells in the parenchyma: inhibited
  disruption of the cerebral cortex: inhibited
DA neural cells
  rescue of DA neural cells: rescue DA neural cells

## CC(C)(Oc1ccc(CCNC(=O)c2ccc(Cl)cc2)cc1)C(=O)O [benzafibrate]
PGC-1a
  ability to upregulate PGC-1a: unable to upregulate PGC-1a

## CC(C)OC(=O)C(C)(C)Oc1ccc(C(=O)c2ccc(Cl)cc2)cc1 [fenofibrate]
PGC-1a; mode of action relevant to dopaminergic cells and Parkinson's disease
  activity (active or not): active

## CCOC(=O)C(C)(C)Oc1ccc(Cl)cc1 [clorofibrate]
PGC-1a
  ability to upregulate PGC-1a: unable to upregulate PGC-1a
